Experimental findings from article PMC6429183, “Identification of Compounds That Inhibit Estrogen-Related Receptor Alpha Signaling Using High-Throughput Screening Assays” (Molecules, 2019) are described below.

For assay [1], the system named is COX4I1. Briefly: qRT-PCR mRNA expression of ERR downstream gene COX4I1. Format: cell-based. Conditions: ERR reporter cells, vs GAPDH, DMSO = 0%. The method, then:
Total RNA was isolated from treated ERR reporter cells using an RNeasy Mini Kit (Qiagen, Germantown, MD, USA), homogenized using a QIAshredder (Qiagen), and reverse transcribed with a High-Capacity RNA-to-cDNA™ Kit (ThermoFisher Scientific, Inc.) following the manufacturers’ instructions. Expression of ERRα, COX8α, IDH3α, PPARα, COX4I1, and cytochrome c genes was normalized against GAPDH. All primers were purchased from ThermoFisher Scientific, Inc. Real-time PCR assays were performed in 384-well plates on a QuantStudio 5 (Applied Biosystems, Foster City, CA, USA) with TaqMan™ Gene Expression Master Mix (ThermoFisher Scientific, Inc.). Induction values were calculated using the equation: Fold = 2^ΔΔCt, where ΔCt represents the differences in cycle threshold numbers between each of the target genes and GAPDH, and ΔΔCt represents the relative change in these differences between control and treatment groups. […]
A general note: In qPCR the cycle at which signal appears reflects the starting amount.

The test system of assay [2] is PPARα. Briefly: qRT-PCR mRNA expression of ERR downstream gene PPARα. Conditions: ERR reporter cells, vs GAPDH, DMSO = 0%. Format: cell-based.
Method: Total RNA was isolated from treated ERR reporter cells using an RNeasy Mini Kit (Qiagen, Germantown, MD, USA), homogenized using a QIAshredder (Qiagen), and reverse transcribed with a High-Capacity RNA-to-cDNA™ Kit (ThermoFisher Scientific, Inc.) following the manufacturers’ instructions. Expression of ERRα, COX8α, IDH3α, PPARα, COX4I1, and cytochrome c genes was normalized against GAPDH. All primers were purchased from ThermoFisher Scientific, Inc. Real-time PCR assays were performed in 384-well plates on a QuantStudio 5 (Applied Biosystems, Foster City, CA, USA) with TaqMan™ Gene Expression Master Mix (ThermoFisher Scientific, Inc.). Induction values were calculated using the equation: Fold = 2^ΔΔCt, where ΔCt represents the differences in cycle threshold numbers between each of the target genes and GAPDH, and ΔΔCt represents the relative change in these differences between control and treatment groups. Experimental data are presented as a mean of triplicate determinations ± SD.
Assay [3] concerns PGC/ERR reporter HEK293 cells. Briefly: CellTiter-Fluor cell viability assay multiplexed with PGC/ERR reporter assay. The format is cell-based. Conditions: for EC50: Homo sapiens.
Assay [4] deals with ERR reporter HEK293 cells. Briefly: CellTiter-Fluor cell viability assay multiplexed with ERR reporter assay. The format is cell-based. The gist of the method:
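ERR or PGC/ERR reporter HEK293 cells (2500/well) were plated 6 h before compound, then incubated 18 h at 37 °C, followed by ONE-Glo luciferase read after 30 min. CellTiter-Fluor was multiplexed as a cytotoxicity counter screen, in triplicate. IC50 and efficacy came from four-parameter Hill fits of pattern-corrected qHTS data.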
(In a reporter assay the amount or activity of a reporter protein is the signal.)

In assay [5] the target is T1, estrogen-related receptor alpha (ERRα) (Homo sapiens, UniProt P11474).
T1 sequence (P11474 1-423): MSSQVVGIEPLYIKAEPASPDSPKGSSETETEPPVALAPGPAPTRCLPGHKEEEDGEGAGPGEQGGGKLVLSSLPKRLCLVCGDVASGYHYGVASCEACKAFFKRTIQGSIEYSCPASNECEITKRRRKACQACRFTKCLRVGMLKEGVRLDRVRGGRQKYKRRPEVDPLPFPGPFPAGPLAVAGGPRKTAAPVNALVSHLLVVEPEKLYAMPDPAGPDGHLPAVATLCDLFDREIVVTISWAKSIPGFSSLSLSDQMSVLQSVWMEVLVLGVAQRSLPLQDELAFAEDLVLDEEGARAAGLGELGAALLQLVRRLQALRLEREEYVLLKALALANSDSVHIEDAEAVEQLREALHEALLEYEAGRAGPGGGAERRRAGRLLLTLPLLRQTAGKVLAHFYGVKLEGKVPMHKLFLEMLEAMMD
Put plainly: ERR reporter (luciferase) antagonist qHTS assay, ERR-HEK293. Conditions: for ERR-HEK293 Follow-Up Efficacy: follow-up screen; for ERR-HEK293 Follow-Up Efficacy / ERR-HEK293 Primary Efficacy: relative to XCT790 = −100%; for ERR-HEK293 Primary Efficacy: primary qHTS, DMSO = 0%. On the technique in general: In qHTS, concentration-response curves come from the screen itself.
Method: (§2) The ERR reporter HEK293 cells were cultured in high glucose DMEM medium (ThermoFisher Scientific, Inc., Waltham, MA, USA) supplemented with 10% fetal bovine serum (FBS; ThermoFisher Scientific, Inc.), 4 mM of L-glutamine (ThermoFisher Scientific, Inc.), 1 mM of sodium pyruvate (ThermoFisher Scientific, Inc.), 100 U/mL of penicillin and 100 mg/mL of streptomycin (ThermoFisher Scientific, Inc.). PGC/ERR reporter HEK293 cells were cultured in the same medium as the ERR reporter HEK293 cells with an additional 1 μg/mL puromycin (ThermoFisher Scientific, Inc.) as the selection marker for PGC-1α expression.
(§3) ERR or PGC/ERR reporter HEK293 cells suspended in culture medium without puromycin were dispensed at 2500 cells/5 μL/well in tissue culture–treated 1536-well white assay plates (Greiner Bio-One North America, Monroe, NC, USA) using a Thermo Scientific Multidrop Combi (ThermoFisher Scientific, Inc.). […] After the cells were incubated at 37 °C with 5% CO2 for 6 h, 23 nL of compounds or control, XTC790, was transferred into the assay plates using a Wako Pintool station (Wako Automation, San Diego, CA, USA). The assay plates were incubated at 37 °C for 18 h, followed by the addition of 5 μL ONE-Glo luciferase reagent (Promega, Madison, WI, USA) using a Flying Reagent Dispenser (Aurora Discovery, Carlsbad, CA, USA). After 30 min of incubation at room temperature, the luminescence intensity of the assay plates was quantified using a ViewLux plate reader (PerkinElmer, Shelton, CT, USA). The assays were performed three times for each compound concentration. These ERR and PGC/ERR reporter assays were multiplexed with the CellTiter-Fluor Cell Viability Assay (Promega), a fluorescence-based cell viability assay, to assess compound cytotoxicity.
(§4) The DMSO-only compound plates at the beginning and end of the compound plate stack were used to correct the data set by applying an in-house pattern correction algorithm [90]. The half maximum inhibition values (IC50) for each compound and maximum response (efficacy) values were obtained by fitting the concentration-response curves of each compound to a four-parameter Hill equation [91]. […] For each reading, the activity outcome of a test compound was first categorized by the average curve rank from the triplicate runs and the reproducibility calls. The final activity outcome of each compound was based on the ERR antagonist readout activity and cell viability counter screen.

In assay [6] the target is T2, ERRα with PGC-1α (PGC/ERR pathway) (Homo sapiens, UniProt P11474).
T2 sequence (P11474 1-423): T1 sequence (P11474 1-423)
Put plainly: PGC/ERR reporter (luciferase) qHTS assay, PGC/ERR-HEK293. As to conditions: for EC50: mean ± SD, triplicate; for PGC/ERR-HEK293 Follow-Up Efficacy: follow-up screen; for PGC/ERR-HEK293 Follow-Up Efficacy / PGC/ERR-HEK293 Primary Efficacy: negative = antagonism, positive = agonism; for activity in the ERR/PGC assay: in words; for PGC/ERR-HEK293 Primary Efficacy: primary qHTS.
Method: as §2, §3, §4

For assay [7], the system named is IDH3α. Put plainly: qRT-PCR mRNA expression of ERR downstream gene IDH3α. The format is cell-based. Conditions: ERR reporter cells, vs GAPDH, DMSO = 0%. The gist of the method:
(§1)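 Total RNA from compound-treated ERR reporter cells was reverse transcribed and analysed by TaqMan real-time PCR. Expression normalized to GAPDH, with fold induction versus control calculated as 2^ΔΔCt. Values are means of triplicates ± SD, t-test.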

Assay [8] has as its system Nrf2/antioxidant response element (ARE). Briefly: Nrf2/ARE-HepG2 β-lactamase reporter agonist assay. The format is cell-based. As to conditions: agonist mode, heatmap outcome.
Method: After the assay plates were incubated at 37 °C for 5–6 h, 23 nL of compounds dissolved in DMSO or positive controls were transferred to the assay plates via a Wako Pintool station (Wako). Except for ARE and p53, all other assays received 1 µL/well agonist (10 nM R1881 for AR; 0.5 and 5 nM β-estradiol for ERα and ERβ respectively; 300 µM CDCA for FXR; 50 nM Rosiglitazone for PPARγ; and 5 nM R5020 for PR) or assay medium using a Flying Reagent Dispenser (FRD). The assay plates were incubated for 16 h (AR, Nrf2/ARE, ERβ, FXR, p53, and PR), 17 h (PPARγ), or 18 h (ERα) at 37 °C, and 1 µL/well LiveBLAzer™ FRET-B/G CCF4-AM substrate (ThermoFisher Scientific, Inc.) detection mix was added using an FRD and the plates were incubated at room temperature for 2 h. […] Data were expressed as the ratio of 460/530 nm emission values.
Assay [9] has as its system cytochrome c. Put plainly: qRT-PCR mRNA expression of ERR downstream gene cytochrome c. As to conditions: ERR reporter cells, vs GAPDH, DMSO = 0%. The format is cell-based. The gist of the method:
as §1

Assay [10] relates to COX8α. Put plainly: qRT-PCR mRNA expression of ERR downstream gene COX8α. The format is cell-based. As to conditions: ERR reporter cells, vs GAPDH, DMSO = 0%. An outline of the steps:
as §1

Setting [11] is: HEK293, follow-up screen, read-out: PGC/ERR-HEK293 Follow-Up Viability EC50 (converted).
The mark [12] stands for this setting: HEK293, primary qHTS, read-out: PGC/ERR-HEK293 Primary Viability EC50 (converted).
Setting [13] is: Homo sapiens, HEK293, follow-up screen, viability, read-out: ERR-HEK293 Follow-Up Viability EC50 (converted).
Setting [14] is: Homo sapiens, HEK293, primary qHTS, viability counter screen, read-out: ERR-HEK293 Primary Viability EC50 (converted).
[15] abbreviates: ERR-HEK293 Follow-Up EC50, follow-up (confirmation) screen, mean ± SD, triplicate.
The mark [16] stands for this setting: ERR-HEK293 Primary EC50, primary qHTS, 18 h, 15 concentrations, mean ± SD, triplicate.
Where [17] appears, read: PGC/ERR-HEK293 Follow-Up EC50, follow-up screen.
Setting [18] is: PGC/ERR-HEK293 Primary EC50, primary qHTS, 18 h.

“And” between values parts separate entries of the source, which are not always exact repeats. Identical values can stand only once. Like-named read-outs stand apart in the source and are kept apart here.

Broadly, the IC50 is the point on the concentration scale where inhibition reaches its midpoint. Low values mean greater potency, high ones weaker potency. For `CC(C)C[C@H](NC(=O)[C@H](Cc1ccccc1)NC(=O)c1cnccn1)B(O)O` [Bortezomib], the “Percent inhibition of mRNA gene expression, COX4I1” value (“Percent inhibition … COX4I1” for short) in assay [1] (20 µM) is 35.3 ± 3.49%. In addition, in assay [2] (20 µM), the “Percent inhibition of mRNA gene expression, PPARα” value (from here on “Percent inhibition … PPARα”) was 14.0 ± 5.17%. The EC50 was 0.0643 µM in assay [3] (setting [11]); 0.0628 µM in assay [3] (setting [12]); 0.078 µM in [4] (setting [13]); 0.0656 µM in [4] (setting [14]); 0.0167 ± 0.00608 µM in assay [5] (setting [15]); 0.017 ± 0.00781 µM in assay [5] (setting [16]). The EC50 in [6] (setting [17]) amounted to 0.00962 ± 0.00452 µM; in assay [6] (setting [18]) it was 0.0169 ± 0.00554 µM. In addition, the IC50 in assay [4] (Homo sapiens, HEK293, primary screen, concurrent with ERR antagonist assay) is about 0.066 µM. Moreover, the “ERR-HEK293 Follow-Up Efficacy” value in assay [5] is given as −125 ± 11.0%. Also, the “PGC/ERR-HEK293 Follow-Up Efficacy” value in [6] is on record as −116 ± 12.7%. The “activity in the ERR/PGC assay” value in assay [6] is listed as “antagonism”. In assay [6], the “PGC/ERR-HEK293 Primary Efficacy” value was −92.2 ± 11.8%. For the same molecule, the “Percent inhibition of mRNA gene expression, IDH3α” value (“Percent inhibition … IDH3α” for short) in assay [7] (20 µM) was 17.6% and 17.6 ± 4.66%. For the same molecule, the “activity in the Nrf2-ARE assay” value in assay [8] was “active agonists”. Besides, the “Percent inhibition of mRNA gene expression, Cytochrome C” value (“Percent inhibition … Cytochrome C” for short) in assay [9] (20 µM) is 48.3% and 48.3 ± 1.92%.

For the molecule `Cc1nc(N)nc(N)c1-c1ccc(Cl)c(Cl)c1` [Methodichlorophen], the “Percent inhibition … COX4I1” value in assay [1] (2 µM) was 12.5% and 12.5 ± 2.60%. Also, the “Percent inhibition of mRNA gene expression, COX8α” value (“Percent inhibition … COX8α” below) in assay [10] (2 µM) is listed as 17.1 ± 29.5%. In [3] (follow-up screen), the “PGC/ERR-HEK293 Follow-Up Viability EC50” value was “Inactive”. The “PGC/ERR-HEK293 Primary Viability EC50” value in [3] (primary qHTS) is listed as “Inactive”. For the same molecule, in assay [4] (follow-up screen, viability), the “ERR-HEK293 Follow-Up Viability EC50” value is on record as “Inactive”. Moreover, the “ERR-HEK293 Primary Viability EC50” value in assay [4] (primary qHTS, viability counter screen) is “Inactive”. Further, the EC50 in assay [5] (setting [15]) was found to be 1.6 ± 0.104 µM; in assay [5] (setting [16]), 1.06 ± 0.122 µM; in [6] (setting [17]), 1.57 ± 0.354 µM; in assay [6] (setting [18]), 0.845 ± 0.0971 µM. The “ERR-HEK293 Follow-Up Efficacy” value in assay [5] is recorded as −104 ± 7.68%. Besides, the results for the “ERR-HEK293 Primary Efficacy” value in assay [5] and in assay [5] (listed as methodichlorophen) were −90.9 ± 4.94% and −90.9%, respectively. Further, in [6], the “PGC/ERR-HEK293 Follow-Up Efficacy” value is reported as −61.5 ± 12.6%. Besides, the “activity in the ERR/PGC assay” value in assay [6] is recorded as “antagonism”. In addition, in assay [6], the “PGC/ERR-HEK293 Primary Efficacy” value was −68.4 ± 7.64%. Besides, in assay [7] (2 µM), the “Percent inhibition … IDH3α” value was 50.8% and 50.8 ± 8.69%. Also, in [8], the “activity in the Nrf2-ARE assay” value is reported as “active agonists”. Moreover, in [9] (2 µM), the “Percent inhibition … Cytochrome C” value was 47.6% and 47.6 ± 7.45%.

In the case of `CC(C)C[C@H](NC(=O)[C@H](CCc1ccccc1)NC(=O)CN1CCOCC1)C(=O)N[C@@H](Cc1ccccc1)C(=O)N[C@@H](CC(C)C)C(=O)[C@@]1(C)CO1` [Carfilzomib], the “Percent inhibition … COX4I1” value in assay [1] (60 nM) came to 37.8 ± 5.12%. Besides, the “Percent inhibition … PPARα” value in assay [2] (60 nM) was 7.39 ± 4.61%. The “Percent inhibition … COX8α” value in assay [10] (60 nM) is 39.6% and 39.6 ± 1.81%. For the same molecule, the EC50 in [3] (setting [11]) is 0.471 µM; in assay [3] (setting [12]) it was 1.36 µM; in assay [4] (setting [13]) it was 0.274 µM; in [4] (setting [14]), 0.178 µM; in assay [5] (setting [15]), 0.0617 ± 0.00786 µM; in assay [5] (setting [16]) it was 0.0552 ± 0.00374 µM. The EC50 in [5] (potency, ERR antagonist assay, primary screen) came out at 0.055 µM; in assay [6] (setting [17]), 0.189 ± 0.0396 µM; in assay [6] (setting [18]), 0.0615 ± 0.0198 µM. Also, the “ERR-HEK293 Follow-Up Efficacy” value in [5] is given as −126 ± 10.9%. The “ERR-HEK293 Primary Efficacy” value in assay [5] is −107% and −107 ± 2.77%. For the same molecule, the “PGC/ERR-HEK293 Follow-Up Efficacy” value in assay [6] is recorded as −150 ± 8.02%. Also, the “activity in the ERR/PGC assay” value in [6] is “antagonism”. Also, the “PGC/ERR-HEK293 Primary Efficacy” value in assay [6] is −121 ± 7.36%. For the same molecule, in assay [7] (60 nM), the “Percent inhibition … IDH3α” value was 1.73 ± 0.76%. Besides, in [8], the “activity in the Nrf2-ARE assay” value is listed as “active agonists”. Besides, in assay [9] (60 nM), the “Percent inhibition … Cytochrome C” value was 44.2% and 44.2 ± 0.70%.

In the case of `COc1cc(/C=C(\C#N)C(=O)Nc2nnc(C(F)(F)F)s2)ccc1OCc1ccc(C(F)(F)F)cc1C(F)(F)F` [XCT790], the “Percent inhibition … COX4I1” value in assay [1] (12 µM) was 46.0 ± 2.16%. For the same molecule, in assay [2] (12 µM), the “Percent inhibition … PPARα” value is on record as 16.0 ± 1.70%. Besides, the “Percent inhibition … COX8α” value in [10] (12 µM, mean ± S.D.) is 65.0 ± 8.41%. Moreover, the “Percent inhibition … IDH3α” value in [7] (12 µM) is recorded as 42.6 ± 6.59%. Moreover, in assay [9] (12 µM), the “Percent inhibition … Cytochrome C” value stood at 60.8 ± 2.16%.
